Converted amounts (≈) assume the structure as drawn. Like-named read-outs stand apart in the source and are kept apart here. Marks after values point to notes of the source that are not given here.
How the values were obtained:
[1] = no reference given; cited from earlier work
[2] = system: nerves of the rat tail; parameters: method as in PMID 6093852; details: cited from earlier work
[3] = system: wax moth larvae (WML); experiment: Locomotory pattern of tethered wax moth larvae after injection; assay type: in vivo, Galleria mellonella; details: 2.5 µL injected (8.15 mg per 1 g body weight), larger WML body weight 0.25 g
Text: To monitor the constant locomotory pattern of WML, the probe of a force-displacement transducer (FT-03C, Grass Instrument Company, USA), attached to a micromanipulator, was hooked onto the tail of the WML, while the head was carefully pinned to a wax substrate, [14]. The electrical signal generated by the rhythmic force produced during locomotion was amplified and fed to a computer through a data acquisition card interface (Keithley KPCI 3102, Keithley Instruments, Cleveland, OH, USA). Software designed using the facilities of Labview (Labview 5.1, National Instruments USA) permitted analysis of the recorded data.

[4] = system: honeybees; parameters: method as in earlier work; details: cited from earlier work
[5] = system: isolated rat sciatic nerve; experiment: tissue or blood
Text: The ex vivo studies used both male and female rats weighing between 230 and 250 g. Animals were sacrificed using light anaesthesia with CO2 and cervical dislocation. The sciatic nerve of the rat, consisting of 27,000 sciatic nerve fibres, was isolated in a three-chamber recording bath (Fig. 5b). The sciatic nerves were dissected from the spinal cord to the knee, immersed in oxygenated (O2, 100%) saline solution and cleaned. The composition of the saline was (in mmoles/L): 136 NaCl, 11 glucose, 4.7 KCl, 2.4 CaCl2, 1.1 MgCl2, 1 NaHCO3, 10 HEPES, pH = 7.2). All experiments were performed at a constant temperature, 26.0±1.0°C. […] The nerve was mounted in a three-chambered recording bath made of Plexiglas, which is described elsewhere, [30]. The recording bath consisted of the recording (R in Fig. 5b), perfusion (P) and stimulating (S) chambers, each with a volume of 12 mL. The nCAP (Fig. 5a) was generated by stimulating (1 Hz) the part of the nerve in the stimulating chamber and was recorded in the recording chamber every second using standard electrophysiological methods. The nCAP was monitored throughout the experiment as an indication of the vitality of the nerve fibres in the recording bath. […] Immediately after the nCAP was eliminated, the saline+compound was removed and the nerve was washed out. Then, recovery of the nCAP in normal stagnant saline was monitored for 24 h. It is worth noting that the recording bath is designed in such a way that the chambers with the saline and 2-H (the nerves and the recording electrodes) was shielded from the air by using the cover (c in Fig. 5b) to avoid evaporation of the volatile 2-H. The saline with 2-H was added through a small diameter opening on the cover.
For further data analysis, the amplitude of the nCAPs, estimated from baseline to peak (Fig. 5), were measured at a specific time (every 1.0 s, 1.0 min or 1.0 h) and were expressed as a percentage of the amplitude of the nCAP at t = 0 (which was considered to be 100%). In the neuropharmacological experiments, time t = 0 was considered the time before application of the compound under investigation. […] The data were fitted in the program GraphPad Prism 5.0 using a one-phase exponential decay equation for the IC50. Data were analyzed by one-way ANOVA and Bonferroni’s post hoc tests, when required. Significance was determined using Students t-test or ANOVA as appropriate (p<0.05).

[6] = system: honeybees; experiment: Recruitment of defensive honeybees at the colony entrance, BeeSCAN counters; assay type: in vivo, Apis mellifera; details: control 46.42
Experimental: We first tested the dominant hypothesis that honeybees secrete 2-H as an alarm pheromone that recruits other honeybees in the face of a potential threat. We monitored honeybee response to different doses of 2-H applied at colony entrances. In control colonies, which were not exposed to 2-H, an average of 46.42 bees left the colony per minute (n = 5, SEM = 0.43). There was no statistical difference, 10 minutes after application, between the mean number of bees recruited in control colonies and those recruited in colonies exposed to 0.1 µL 2-H (mean = 47.18, n = 5, SEM = 0.36, p = 1.000). In contrast, higher doses of 2-H acted as a repellent.
We conducted field experiments at the apiary, in which we used electronic monitoring devices (BeeSCAN v2.03) to test whether the presence of 2-H on the colony flight boards stimulated recruitment of defensive honeybees. The monitoring devices counted the number of honeybees exiting the beehive once per minute for 10 minutes for each of the five colonies per treatment. […] To apply 2-H, we followed the standard methodology described in previous experiments.

[7] = molecular target: T1, hNav1.6 channels (Homo sapiens, UniProt Q9UQD0); experiment: Patch-clamp (PatchXpress 7000A) on transfected CHO cells, hNav1.6; assay type: cell-based; details: for IC50: CHO cells, n = 6, mean ± SEM, 2-H exposure limited to 3 min, read-out: hNav1.6 IC50 (converted); for times less active than lidocaine: hNav1.6
T1 construct: expressed in transfected cells; host or cells: CHO-K1 (ATCC CCL-61)
T1 sequence (Q9UQD0 whole entry): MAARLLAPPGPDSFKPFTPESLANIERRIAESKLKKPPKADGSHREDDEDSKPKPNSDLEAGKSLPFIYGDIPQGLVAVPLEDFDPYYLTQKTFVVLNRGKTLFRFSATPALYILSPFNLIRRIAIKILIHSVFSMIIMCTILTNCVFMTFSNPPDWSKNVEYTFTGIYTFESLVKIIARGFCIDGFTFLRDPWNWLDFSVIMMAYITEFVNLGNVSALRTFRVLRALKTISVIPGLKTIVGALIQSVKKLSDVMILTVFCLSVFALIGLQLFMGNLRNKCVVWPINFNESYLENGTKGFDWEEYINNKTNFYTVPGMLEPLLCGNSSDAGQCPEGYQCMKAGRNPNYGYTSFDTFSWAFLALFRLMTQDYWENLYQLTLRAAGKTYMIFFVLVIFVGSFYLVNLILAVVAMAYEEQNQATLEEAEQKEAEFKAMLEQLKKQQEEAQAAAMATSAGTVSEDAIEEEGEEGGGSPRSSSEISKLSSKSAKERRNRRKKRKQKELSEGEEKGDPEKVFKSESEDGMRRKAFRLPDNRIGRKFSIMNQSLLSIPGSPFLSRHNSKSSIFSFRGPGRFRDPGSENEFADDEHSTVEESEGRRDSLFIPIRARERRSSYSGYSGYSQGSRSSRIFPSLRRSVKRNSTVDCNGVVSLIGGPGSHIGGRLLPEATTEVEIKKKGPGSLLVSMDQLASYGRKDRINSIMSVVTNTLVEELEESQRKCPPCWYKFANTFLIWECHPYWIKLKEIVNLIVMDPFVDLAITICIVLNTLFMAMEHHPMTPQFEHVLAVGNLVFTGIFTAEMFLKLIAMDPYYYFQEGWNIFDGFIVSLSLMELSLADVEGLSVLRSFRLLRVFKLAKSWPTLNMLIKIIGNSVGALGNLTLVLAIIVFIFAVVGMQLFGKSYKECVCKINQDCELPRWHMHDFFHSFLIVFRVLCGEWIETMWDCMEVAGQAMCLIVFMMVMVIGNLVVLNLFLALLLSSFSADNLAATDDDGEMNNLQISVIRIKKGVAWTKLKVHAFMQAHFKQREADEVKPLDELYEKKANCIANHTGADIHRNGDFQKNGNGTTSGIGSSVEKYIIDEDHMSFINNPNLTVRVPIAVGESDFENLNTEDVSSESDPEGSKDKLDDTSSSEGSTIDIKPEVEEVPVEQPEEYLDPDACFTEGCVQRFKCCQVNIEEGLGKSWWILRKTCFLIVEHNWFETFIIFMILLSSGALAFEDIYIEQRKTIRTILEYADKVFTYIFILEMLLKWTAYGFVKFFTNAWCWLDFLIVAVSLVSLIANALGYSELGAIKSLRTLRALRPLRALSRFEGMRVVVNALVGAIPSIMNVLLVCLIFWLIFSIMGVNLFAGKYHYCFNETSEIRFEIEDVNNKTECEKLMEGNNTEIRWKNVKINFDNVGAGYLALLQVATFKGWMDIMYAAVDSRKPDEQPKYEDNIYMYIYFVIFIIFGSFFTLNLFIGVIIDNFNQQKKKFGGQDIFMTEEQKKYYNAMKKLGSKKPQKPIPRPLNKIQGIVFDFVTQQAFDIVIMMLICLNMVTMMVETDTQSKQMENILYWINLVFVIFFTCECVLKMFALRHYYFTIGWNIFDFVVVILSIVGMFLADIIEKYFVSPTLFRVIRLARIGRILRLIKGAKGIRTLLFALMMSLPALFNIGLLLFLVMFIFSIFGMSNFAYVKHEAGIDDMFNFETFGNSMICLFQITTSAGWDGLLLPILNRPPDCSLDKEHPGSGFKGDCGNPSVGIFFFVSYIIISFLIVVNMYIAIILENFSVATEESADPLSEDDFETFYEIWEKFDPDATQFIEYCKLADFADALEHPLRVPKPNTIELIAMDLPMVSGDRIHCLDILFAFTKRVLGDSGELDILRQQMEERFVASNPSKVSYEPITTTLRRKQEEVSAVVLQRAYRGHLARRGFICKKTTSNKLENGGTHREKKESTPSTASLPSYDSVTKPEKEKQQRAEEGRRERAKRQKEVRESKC
Text: To test whether 2-H can act by blocking VGNaCs, the PatchXpress 7000A was used. Mammalian CHO (Chinese hamster ovary) transfected with ion hNav1.2 and hNav1.6 channels cDNAs (SCN2A and SCN8A genes) were exposed to 2-H under both tonic and phasic conditions. The mammalian CHO-K1 epithelial embryonic cell line (ATCC number CCL-61) from Cricetulus griseus was obtained from ATCC, Manassas, VA. CHO-K1 cells were transfected with either hNav1.2 or hNav1.6 channel cDNA (SCN2A and SCN8A genes, respectively) and were exposed to 2-H under both tonic and phasic conditions.
The effects of 2-H were evaluated on hNav1.2 at 0.73, 1.46, 2.19, and 2.92 mg/mL and on hNav1.6 channels at 0.1, 0.36, 0.73, and 1.46 mg/mL, with each concentration tested in at least six cells (n = 6). Cells were exposed to each concentration of 2-H and measurements of the inward current were obtained within the first 3 min of exposure. […] Since the PatchXpress has open cell chambers where the testing occurs, there is no way to hermetically seal the experiment.
Based on this analysis, we estimated the IC50.

CCCCCC(C)=O [2-H, 2-heptanone]
logP [1]: 1.98 | neurotoxic effects in vivo [2]: no neurotoxic effects | effect on locomotory pattern [3]: body movement stopped abruptly | recovery time of locomotory pattern ([3]; n = 8): 87.62 min | low concentration easily detectable by honeybees [4]: 4.049 µg/mL | neurotoxic action in 24 h monitoring of nerve vitality [5]: no neurotoxic action | IT0 (time required for 100% inhibition of the nCAP) ([5]; 1.41 mg/mL): 517.5 ± 25.62 s | IT50 (time to inhibit nCAP amplitude to 50% of control) ([5]; 1.41 mg/mL): 109.7 ± 2.87 s | IT0 (time required for 100% inhibition of the nCAP) ([5]; 2.28 mg/mL): 358.8 ± 18.07 s | IT50 (time to inhibit nCAP amplitude to 50% of control) ([5]; 2.28 mg/mL): 108.9 ± 0.22 s | IT0 (time required for 100% inhibition of the nCAP) ([5]; 3.41 mg/mL): 221.88 ± 7.32 s | IT50 (time to inhibit nCAP amplitude to 50% of control) ([5]; 3.41 mg/mL): 39.14 ± 4.84 s | time to complete elimination of the nCAP ([5]; 3.41 mg/mL): 221.88 s | IT0 (time required for 100% inhibition of the nCAP) ([5]; 10 mg/mL): 195 ± 12 s | IT50 (time to inhibit nCAP amplitude to 50% of control) ([5]; 10 mg/mL): 22.3 ± 1.1 s | IC50 ([5]; Rattus norvegicus, read-out: IC50 from concentration-response curves of the IT0 values): 469 µg/mL (≈ 4.11 mM) | IT0 ([5]; Table 3, 3.41 mg/mL, unit not given in Table 3, s): 221.88±7.32^a seconds | IT50 ([5]; Table 3, 3.41 mg/mL, unit not given in Table 3, seconds per Table 2): 39.14 ± 4.84 s | recovery of nCAP amplitude after wash with normal saline ([5]; after elimination of nCAP, remained at this level for at least 24 h, n = 8): 89.51% | mean number of bees leaving the colony per minute ([6]; 0.1 µL 2-H at colony entrance, 10 minutes after application, p = 1.000): 47.18 per minute | mean number of honeybees exiting the hive per minute ([6]; 10 µL 2-H at colony entrance, p = 0.003): 42.54 per minute | mean number of honeybees exiting the hive per minute ([6]; 1000 µL 2-H at colony entrance, p = 0.002): 40.88 per minute | IC50 ([7]; Phasic Experiment): 4.64 mM | IC50 ([7]; Tonic Experiment): 7.18 mM | times less active than lidocaine ([7]; phasic experiments): 7.57 times | times less active than lidocaine ([7]; tonic experiments): 2.82 times
